# Earlier results, collected in PMC8245892, “Pharmacokinetics of a Single Dose of Turmeric Curcuminoids Depends on Formulation: Results of a Human Crossover Study” (The Journal of Nutrition, 2021).
# Where a name gives a salt, the structure may show the parent alone.
# Assays:
# [1] = tested on: NF-κB; set-up: method as in PMID 24280069
# [2] = set-up: method as in PMID 24280069
# [3] = tested on: phorbol ester–induced PGE2 production; set-up: method as in PMID 11221833; details: human cells; compared with unconjugated curcumin
# [4] = aqueous buffer (pH 5.0)
Compound,Effect on NF-κB [1],Antiproliferative activity [2],Reduction of phorbol ester–induced PGE2 production [3],Solubility [4] [µg/mL]
COc1cc(/C=C/C(O)=C/C(=O)/C=C/c2ccc(O[C@@H]3O[C@H](C(=O)O)[C@@H](O)[C@H](O)[C@H]3O)c(OC)c2)ccc1O [curcumin monoglucuronide],no effect,very little antiproliferative activity,–,–
COc1cc(/C=C/C(O)=C/C(=O)/C=C/c2ccc(OS(=O)(=O)O)c(OC)c2)ccc1O [curcumin sulfate],–,–,less effective than unconjugated curcumin,–
COc1cc(C=CC(=O)CC(=O)C=Cc2ccc(OC3OC(C(=O)O)C(O)C(O)C3O)c(OC)c2)ccc1OC1OC(C(=O)O)C(O)C(O)C1O (stereo not drawn) [diglucuronide],no effect,very little antiproliferative activity,–,–
curcumin,–,–,–,0.011
